Columns and labels:
[1] = system: RAW 264.7 macrophage cells; assay: Metabolic potential (OCR/ECAR, XFp) after co-injection of FCCP and oligomycin, LPS treatment; assay type: cell-based; settings: 1 μg/ml LPS, 1 hour; stress 0.5 μM FCCP + 1.0 μM oligomycin
Protocol: Cells treated with LPS received media containing 1 μg/ml LPS, control cells received assay media.
(§1) Metabolic potential was measured using an XFp Extracellular Flux Analyzer (Seahorse Bioscience) and XFp assay cartridges (Seahorse Bioscience). Briefly, microplates containing LPS-treated and control cells were placed in the XFp Extracellular Flux Analyzer, and initial OCR and ECAR measurements are taken.

C2C12 myotubes = assay: Metabolic potential (OCR/ECAR, XFp) after co-injection of FCCP and oligomycin, etomoxir treatment; assay type: cell-based; settings: 40 μM etomoxir, 1 hour; stress 0.5 μM FCCP + 1.0 μM oligomycin
Protocol: C2C12 myoblast cells were seeded into XFp microplates at a density of 1.2×10^4 cells/well. […] During differentiation, medium was replaced with fresh differentiation medium every other day. […] Metabolic potential was measured using an XFp Extracellular Flux Analyzer (Seahorse Bioscience) and XFp assay cartridges (Seahorse Bioscience). Briefly, microplates containing etomoxir-treated and control myotubes were placed in the XFp Extracellular Flux Analyzer, and initial OCR and ECAR measurements are taken.

[2] = system: RAW 264.7 macrophage cells; settings: RAW 264.7 cells, in the presence of 1.0 μM oligomycin; FCCP 0.125-2 μM tested
Source text: Cultured cells are first seeded into the wells of an appropriate microplate (also referred to herein as a multi-well plate) for the instrument being used (as described above). • 2. After adherence to the microplate, cells are either allowed to grow as desired, or may be assayed for metabolic potential immediately. • 3. At time of assay, cell culture media is exchanged for a volume of assay media appropriate for the microplate being used to create a cell sample including a plurality of cells disposed in a media. The microplate is allowed to incubate for 1 h at 37° C. in a non-CO2 incubator. • 4. […] To titrate optimal FCCP concentration in an XFe96 instrument, RAW 264.7 macrophages are exposed to varying concentrations of the drug, and the resulting OCR is measured. In this example, cells were first treated with 1.0 μM oligomycin (final concentration in 200 μl assay media), OCR was measured, and then one of the following concentrations of FCCP was added: 0.125, 0.25, 0.5, 1.0, or 2.0 μM (final concentration in 222 μl assay media). […] The metabolic potential of the cell sample may be determined by (i) providing the initial oxygen consumption rate, the initial extracellular acidification rate, the subsequent oxygen consumption rate, and the subsequent extracellular acidification rate to a software program, and (ii) using the software program to calculate the metabolic potential. […]

C2C12 myoblast cells = assay: Metabolic potential (OCR/ECAR, XFp) after co-injection of FCCP and oligomycin, UK5099 treatment; assay type: cell-based; settings: 2 μM UK5099, 1 hour; stress 0.5 μM FCCP + 1.0 μM oligomycin
Protocol: C2C12 myoblast cells were seeded into XFp microplates at a density of 1.2×10^4 cells/well.
Treated cells received media containing 2 μM UK5099 (a potent inhibitor of the mitochondrial pyruvate carrier), control cells received assay media.
as §1, with “UK5099-treated” for “LPS-treated”

How did the “aerobic metabolic potential relative to control cells” value [1] turn out when lipopolysaccharide [LPS] was run?
The value was “increased”.

And the “glycolytic potential relative to control cells” value [1]?
The value was “roughly unchanged”.

Which results are given for CCOC(=O)[C@@]1(CCCCCCOc2ccc(Cl)cc2)CO1 [etomoxir]?
aerobic metabolic potential compared to control myotubes (C2C12 myotubes): increased; glycolytic metabolic potential compared to control myotubes (C2C12 myotubes): slightly decreased

Which “FCCP concentration at which maximal OCR is achieved” value [2] does the source give for N#CC(C#N)=NNc1ccc(OC(F)(F)F)cc1 [FCCP, carbonyl cyanide p-trifluoromethoxyphenylhydrazone] here?
The value was 0.5 µM.

What does the source list for N#C/C(=C\c1cn(-c2ccccc2)c2ccccc12)C(=O)O [UK5099]?
aerobic metabolic potential relative to control cells (C2C12 myoblast cells): decreased; glycolytic metabolic potential relative to control cells (C2C12 myoblast cells): decreased
